Data reported in patent publication EP0866656B1, “USE OF N-SUBSTITUTED PYRIDONES AS TUMOR NECROSIS FACTOR ALPHA INHIBITORS” (MARGOLIN, Solomon B., priority 1995, dated 1997).
Several values for one entry are separate records, joined by “and”; a condition that tells them apart may be missing. Equal entries are not always repeated.

Tests used:
THP-1 cells = conditions: LPS-activated THP-1 cells; read-out: 1C50S, inhibition of TNF-α secretion; cited from earlier work
mouse T cells = conditions: cited from earlier work; for inhibition of T cell activation (proliferation and IL-2 secretion): anti-CD3 antibody
human T cells = conditions: cited from earlier work; for inhibition of T cell activation (proliferation and IL-2 secretion): anti-CD3 antibody
TNF-α [1] = conditions: oral dosing, serum TNF-α; cited from earlier work
TNF-α [2] = conditions: cited from earlier work
TNF-α [3] = assay: TNF induction by macrophages exposed to LPS (TNF bioassay of culture medium); assay type: cell-based, murine; conditions: for TNF induction by macrophages exposed to LPS, Mean +/- S.E.: mean of experiments 1-6
Description: (§1) The reduction was directly related to the concentration of pirfenidone in the culture media.
(§2) The ability of pirfenidone and related compounds to block the synthesis and the release of TNF-α from macrophages, as well as other cells, was bioassayed by the method of Morgan, Mills, D.L. Lefkowitz, and S.S. Lefkowitz ("An Improved Colorimetric Assay for Tumor Necrosis Factor Using […] Cells Cultured on Novel Microtiter Plates," Jour. Immunol. Method., 145:259-262, 1991).

WEHI 164 cells = assay: Inhibition of synthesis and/or release of TNF-α from WEHI 164 cells; assay type: cell-based; conditions: in vitro, 33-900 micrograms/milliliter
Description: (§3) In vitro, pirfenidone at concentrations of 33-900 micrograms/milliliter inhibited the synthesis and/or release of excessive and pathophysiologic amounts of TNF-α from WEHI 164 cells (Table 1, page 40). […]
as §2

[4] = system: WEHI neoplastic fibroblast cells; assay: Killing of WEHI neoplastic fibroblast cells by TNF-α; assay type: cell-based; conditions: in vitro, 33 to 300 micrograms/milliliter
Description: as §3

macrophages = assay: Toxicity to macrophages in culture; assay type: cell-based, murine; conditions: 0.9 mg/ml
Description: as §1

TNF-α [5] = assay: TNF-α synthesis within lysed macrophages, ELISA (Example II); assay type: cell-based, murine; conditions: 60 minutes
Description: In order to determine the direct impact of graded concentrations of pirfenidone upon the synthesis of TNF-α within the cytoplasm of murine macrophages, cell cultures of macrophages, grown in appropriate culture media, were treated with the respective concentrations pirfenidone for 60 minutes: (1) without exposure to LPS (controls) and (2) exposure to 1.0 pg/ml of LPS (E. coli.). Promptly after an exposure for 60 minutes, (a) the macrophages were separated from the culture medium by centrifugation, and (b) the macrophages were lysed. Subsequently, the lysed contents (cell cytoplasm and nucleus) from the macrophage cells were assayed via ELISA for TNF-α levels.

TNF-α [6] = assay: Endotoxin [LPS] shock in animals (Example III); assay type: in vivo; conditions: i.p. dosages of 30-400 milligrams per kilogram of body weight
TNF-α [7] = assay: In vivo induction of circulating (serum) TNF-α by LPS in mice
Description: This model is a modification of that previously described for the in vivo induction of circulating TNF-α, (Haranaka et al., Cancer Immunol. Immunother, 18:87-90,1984).
The bioassays for TNF-α were confirmed in monitoring tests by using a modification of the basic sandwich ELISA method (Winston et al., "Current Protocols in Molecular Biology," page 11.2.1, Ausubel et al., Ed. 1987.) All other plasma levels of TNF were measured using a modification of the basic sandwich ELISA method (Winston et al., "Current Protocols in Molecular Biology," Pg. 11.2.1, Ausubel et al., Ed. 1987.).
The LPS was injected intravenously into the mice at a dosage of 2.5 micrograms (in a volume of […] from a stock solution of 100 micrograms per […]) per mouse, and the Pirfenidone was administered immediately thereafter. The mice were then bled by cardiac puncture 90 minutes later. Subsequently, the serum was analyzed for TNF-α by a ELISA kit (Endogen).

[8] = Lethality caused by LPS plus D-galactosamine in mice (Example IV); assay type: in vivo
[9] = Diffusion capacity of the lungs (serial DLCO) in patients with pulmonary dysfunction; assay type: in vivo; conditions: oral, preliminary tests

OCc1cc(C(O)CNCCCCCCOCCCCc2ccccc2)ccc1O (stereo not shown) [salmeterol]
IC50 (THP-1 cells): ~100 nM
inhibition of T cell activation (proliferation and IL-2 secretion) (mouse T cells): able to inhibit
T cell inhibition, fold less potent than that for TNF-α production (mouse T cells): about 10 fold
inhibition of T cell activation (proliferation and IL-2 secretion) (human T cells): able to inhibit
T cell inhibition, fold less potent than that for TNF-α production (human T cells): about 10 fold
duration of efficacy (TNF-α [1]): 3 h
inhibition of serum TNF-α levels (TNF-α [2]; LPS/galactosamine endotoxic shock): up to 94%
animals protected from the lethal effects of the LPS/galactosamine mixture (TNF-α [2]; in vivo): less than 50%

Cc1ccc(=O)n(-c2ccccc2)c1 [pirfenidone, 5-Methyl-1-phenyl-2-(1H)-pyridone]
TNF induction by macrophages exposed to LPS, Mean +/- S.E. (TNF-α [3]; Pirfenidone 100 micrograms/ml): 144+/-29 Relative TNF Units
TNF induction by macrophages exposed to LPS (TNF-α [3]; Pirfenidone 100 micrograms/ml, pre-incubation 0 hours): 109 Relative TNF Units and 87 Relative TNF Units
TNF induction by macrophages exposed to LPS (TNF-α [3]; Pirfenidone 100 micrograms/ml, pre-incubation 24 hours): 209 Relative TNF Units
TNF induction by macrophages exposed to LPS, Mean +/- S.E. (TNF-α [3]; Pirfenidone 300 micrograms/ml): 84+/-31 Relative TNF Units
TNF induction by macrophages exposed to LPS (TNF-α [3]; Pirfenidone 300 micrograms/ml, pre-incubation 24 hours): 143 Relative TNF Units
TNF induction by macrophages exposed to LPS, Mean +/- S.E. (TNF-α [3]; Pirfenidone 900 micrograms/ml): 43+/-18 Relative TNF Units
TNF induction by macrophages exposed to LPS (TNF-α [3]; Pirfenidone 900 micrograms/ml, pre-incubation 24 hours): 111 Relative TNF Units
level of TNF-α secreted into the culture medium (TNF-α [3]; thioglycollate-induced murine peritoneal macrophages exposed to LPS, P<0.01): markedly reduced level
synthesis and/or release of excessive and pathophysiologic amounts of TNF-α from WEHI 164 cells (WEHI 164 cells): inhibited
killing of WEHI neoplastic fibroblast cells by TNF-α [4]: did not inhibit
toxicity with macrophages (macrophages): No toxicity was apparent
LPS induced rise in TNF-α synthesis within cytoplasm and nucleus of macrophages (TNF-α [5]; LPS (E. coli.) 1.0 pg/ml, concentration related, P< 0.01): inhibition
levels of TNF-α within the cytoplasm of the macrophages (TNF-α [5]; controls, no exposure to LPS, 0.9 mg/ml): only baseline levels were found
pathophysiological toxic effects of TNF-α (endotoxin [LPS] shock) (TNF-α [6]): inhibited or completely blocked
inhibition of the rise in TNF-α serum levels as compared to Control Group (TNF-α [7]; LPS 2.5 micrograms i.v. per mouse, bled 90 minutes later): 50%
formation and release of TNF-α into the circulation (TNF-α [7]; mice, 200 milligrams per kilogram intraperitoneal or greater, maintained for hours): complete blockage
efficacy when given orally (rise in TNF-α serum levels) (TNF-α [7]; oral, same dosages): effective in the same dosages
serum levels of TNF-α in the surviving mice ([8]; 300 mg/kg i.p. 30 minutes prior to LPS plus D-galactosamine): approached normal baseline levels
mortality ([8]; 300 mg/kg i.p. 30 minutes prior to i.v. LPS plus 600mg/kg i.p. D-galactosamine, observed 2 days, 100.0% without pirfenidone): 10.0%
diffusion capacity of the lungs as measured by serial DLCO determinations [9]: marked, rapid and consistent improvement

CC(C)(C)NCC(O)c1ccc(O)c(CO)c1 (stereo not shown) [albuterol]
inhibition of T cell activation (proliferation and IL-2 secretion) (mouse T cells): completely inactive
inhibition of T cell activation (proliferation and IL-2 secretion) (human T cells): completely inactive
duration of efficacy (TNF-α [1]): much shorter duration of action
